Data on six molecules can be found in patent US5173481A, “Preparation of specifically substituted cyclodextrins” (The United States of America as represented by the …, priority 1990, dated 1992).

In brackets after ≈: the same amount, converted by molar mass. Bounds are passed on as bounds.

One data set in a line: Solubility in water. To be noted: for solubility: water.
Data set [1] is described as follows: Solubility in water in the presence of excess toluene. As to conditions: excess of toluene added to the aqueous phase; relative to 3.2 mg/ml in water. In kind it is physicochemical. Here is the method: The suspension obtained upon cooling a neutralization of reaction mixture was concentrated to 600 ml and dialyzed for 7 h at room temperature. The retained suspension (.intg.700 ml) was stirred with toluene (10 ml) for 14 h, water (500 ml) was added, stirred for 15 min, and filtered. The residue was suspended in water (1.25 L), stirred for 1 h, and filtered. The combined filtrates were concentrated to 200 ml, refrigerated overnight, the sclid was collected by filtration, and recrystallized from hot water to yield white crystals of the product. Rf 0.25 (1-propanol-water-ethyl acetate-ammonium hydroxide, 6:3:1:1), FIG. 1. M.P. 292°-293° C. MS (FAB+) m/e 1193.2 (M+H^+), 1210.3 (M+H2 O). MS (FAB-) m/e 1191.1 (M-H^+), 1210.2 (M+H2 O). MS (^252 Cf) m/e 1215.8 (M+Na^+). ^1 H-NMR (D2 O) δ5.30-5.23 and 5.17- 5.05 (m, 7H, H-1), 4.16-3.40 (m, 45H), 1.17 (d, J=6.42, 3H, CH3). Anal. for C45 H76 O36 ·3H2 O; calcd. C 43.30, H 6.58; found C 43.31, H 6.43.

Consider `CC(O)CO[C@H]1[C@H]2O[C@H]3[C@H](O)[C@@H](O)[C@@H](O[C@H]4[C@H](O)[C@@H](O)[C@@H](O[C@H]5[C@H](O)[C@@H](O)[C@@H](O[C@H]6[C@H](O)[C@@H](O)[C@@H](O[C@H]7[C@H](O)[C@@H](O)[C@@H](O[C@H]8[C@H](O)[C@@H](O)[C@@H](O[C@@H]([C@@H]1O)[C@@H](CO)O2)O[C@@H]8CO)O[C@@H]7CO)O[C@@H]6CO)O[C@@H]5CO)O[C@@H]4CO)O[C@@H]3CO` (stereo partly drawn) [2-O-(2-hydroxypropyl)-β-cyclodextrin], for which the “solubility (qualitative)” value in the data set “Solubility in water” (inferred as probable reason for easy isolation) is recorded as “very low solubility”.

For the molecule `C[C@@H](O)CO[C@H]1[C@H]2O[C@H]3[C@H](O)[C@@H](O)[C@@H](O[C@H]4[C@H](O)[C@@H](O)[C@@H](O[C@H]5[C@H](O)[C@@H](O)[C@@H](O[C@H]6[C@H](O)[C@@H](O)[C@@H](O[C@H]7[C@H](O)[C@@H](O)[C@@H](O[C@H]8[C@H](O)[C@@H](O)[C@@H](O[C@@H]([C@@H]1O)[C@@H](CO)O2)O[C@@H]8CO)O[C@@H]7CO)O[C@@H]6CO)O[C@@H]5CO)O[C@@H]4CO)O[C@@H]3CO` [2-O-[(R)-2'-Hydoxypropy]-β-cyclodextrin], the solubility (in general, the concentration that dissolves in the medium under given conditions) in “Solubility in water” turned out to be 7500 µg/mL (≈ 6.29 mM).

`CC(O)CO[C@H]1[C@H]2O[C@H]3[C@H](O)[C@@H](O)[C@@H](O[C@H]4[C@H](O)[C@@H](O)[C@@H](O[C@H]5[C@H](O)[C@@H](O)[C@@H](O[C@H]6[C@H](O)[C@@H](O)[C@@H](O[C@H]7[C@H](O)[C@@H](O)[C@@H](O[C@H]8[C@H](O)[C@@H](O)[C@@H](O[C@@H]([C@@H]1O)[C@@H](CO)O2)O[C@@H]8CO)O[C@@H]7CO)O[C@@H]6CO)O[C@@H]5CO)O[C@@H]4CO)O[C@@H]3CO` (stereo partly drawn) [2-O-[(RS)-2'-Hydroxypropyl]-β-cyclodextrin] came in with a solubility in “Solubility in water” of 4000 µg/mL (≈ 3.35 mM).

Turning to `OC[C@H](O)CO[C@H]1[C@H]2O[C@H]3[C@H](O)[C@@H](O)[C@@H](O[C@H]4[C@H](O)[C@@H](O)[C@@H](O[C@H]5[C@H](O)[C@@H](O)[C@@H](O[C@H]6[C@H](O)[C@@H](O)[C@@H](O[C@H]7[C@H](O)[C@@H](O)[C@@H](O[C@H]8[C@H](O)[C@@H](O)[C@@H](O[C@@H]([C@@H]1O)[C@@H](CO)O2)O[C@@H]8CO)O[C@@H]7CO)O[C@@H]6CO)O[C@@H]5CO)O[C@@H]4CO)O[C@@H]3CO` [2-O-[(S)-2', 3'-Dihydroxypropyl-β-cyclodextrin], the concentration in solution in “Solubility in water” (solubility) came to 12000 µg/mL (≈ 9.93 mM). This solubility lies about 3-fold higher than the previous one.

Molecule `C[C@H](O)CO[C@H]1[C@H]2O[C@H]3[C@H](O)[C@@H](O)[C@@H](O[C@H]4[C@H](O)[C@@H](O)[C@@H](O[C@H]5[C@H](O)[C@@H](O)[C@@H](O[C@H]6[C@H](O)[C@@H](O)[C@@H](O[C@H]7[C@H](O)[C@@H](O)[C@@H](O[C@H]8[C@H](O)[C@@H](O)[C@@H](O[C@@H]([C@@H]1O)[C@@H](CO)O2)O[C@@H]8CO)O[C@@H]7CO)O[C@@H]6CO)O[C@@H]5CO)O[C@@H]4CO)O[C@@H]3CO` [2-O-[(S)-2'-Hydroxypropyl]-β-cyclodextrin] registered a solubility in the data set “Solubility in water” of 3200 µg/mL (≈ 2.68 mM). For the same molecule, in data set [1], the “solubility in water with excess of toluene added” value is listed as “only insignificantly changed”.

In turn, “Mono[(S)-2-Hydroxypropyl]-α-Cyclodextrin” registered a solubility in water greater than 50%.
